Laboratory results reported in patent publication US9334279B2, “Hepatitis C virus inhibitors” (BRISTOL-MYERS SQUIBB COMPANY, priority 2012, dated 2016).
Like-named read-outs stand apart in the source and are kept apart here.

What was measured:
[1] = rcm bond, 15-membered ring, Hoveyda-Grubbs II
HCV GT1a(H77) replicon = experiment: HCV replicon luciferase reporter assay, genotype 1a; type: cell-based, HCV genotype 1a; settings: Hepatitis C virus, 72 h, HUH-7 cells, Renilla luciferase, 3 days incubation
Summary of the method: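 Huh-7 cells stably carried a GT1a(H77) Renilla luciferase replicon with NS3 P1496L and NS5A S2204I adaptive mutations. Luminescence was read after 2 h with 7.5 μM EnduRen, and EC50 came from a four-parameter logistic fit; CC50 came from multiplexed Cell Titer-Blue (8 h).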

HCV GT1b(Con1) replicon = experiment: HCV replicon luciferase reporter assay, genotype 1b; type: cell-based, HCV genotype 1b; settings: Hepatitis C virus, 72 h, HUH-7 cells, Renilla luciferase, 3 days incubation
Summary of the method: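 HUH-7 cells stably carrying a Con1 GT1b replicon with Renilla luciferase and Ser1179Ile adaptive mutation; 3.0×10^3 cells/well, DMEM 4% FCS, 0.5% DMSO, twenty-point 3-fold titration, 3 days 37 °C. Luminescence 2 h after 7.5 μM EnduRen; EC50 by four-parameter logistic fit. CC50 from multiplexed Cell Titer-Blue fluorescence (8 h).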

SMILES	EC50 (HCV GT1a(H77) replicon; read-out: LE_1a (EC50, range))	EC50 (HCV GT1b(Con1) replicon; read-out: LE_1b (EC50, range))	also measured
CC1CC/C=C\[C@@H]2C[C@@]2(C(=O)NS(=O)(=O)C2(C)CC2)NC(=O)[C@@H]2C[C@@H](O)CN2C(=O)[C@@H](NC(=O)OC(C)(C)C)[C@H](C)C1 (some centres unmarked)	–	–	ring closure, isolated yield ([1]; from C=CCCC(C)C[C@@H](C)[C@H](NC(=O)OC(C)(C)C)C(=O)N1C[C@H](O)C[C@H]1C(=O)N[C@]1(C(=O)NS(=O)(=O)C2(C)CC2)C[C@H]1C=C, 1,2-dichloroethane, 8.8 mM, 80.0 °C, 2.0 h): 70%
CC[C@@H]1CC(C)CC/C=C\[C@@H]2C[C@@]2(C(=O)NS(=O)(=O)C2CC2)NC(=O)[C@@H]2C[C@@H](O)CN2C(=O)[C@H]1NC(=O)OC(C)(C)C (some centres unmarked)	–	–	ring closure, isolated yield ([1]; from C=CCCC(C)C[C@@H](CC)[C@H](NC(=O)OC(C)(C)C)C(=O)N1C[C@@H](O)CC1C(=O)N[C@]1(C(=O)NS(=O)(=O)C2CC2)C[C@H]1C=C, dichloroethane, 26.6 mM, 95.0 °C, 16.0 h): 47%
CC[C@@H]1C[C@H](C)CC/C=C\[C@@H]2C[C@@]2(C(=O)NS(=O)(=O)C2CC2)NC(=O)[C@@H]2C[C@@H](Oc3ccc(-c4nccs4)cn3)CN2C(=O)[C@H]1NC(=O)OC(C)(C)C(F)(F)F [Compound 1063, 1,1,1-trifluoro-2-methylpropan-2-yl ((2R,6S,7R,9R,13aS,14aR,16aS,Z)-14a-((cyclopropylsulfonyl)carbamoyl)-7-ethyl-9-methyl-5,16-dioxo-2-((5-(thiazol-2-yl)pyridin-2-yl)oxy)-1,2,3,5,6,7,8,9,10,11,13a,14,14a,15,16,16a-hexadecahydrocyclopropa[e]pyrrolo[1,2-a][1,4]diazacyclopentadecin-6-yl)carbamate]	5.01 to 35 nM	1.01 to 5 nM	EC50 (HCV GT1a(H77) replicon; read-out: LE_1a (EC50)): 16.7 nM; EC50 (HCV GT1b(Con1) replicon; read-out: LE_1b (EC50)): 3.51 nM
C[C@@H]1CC/C=C\[C@@H]2C[C@@]2(C(=O)NS(=O)(=O)C2(C)CC2)NC(=O)[C@@H]2C[C@@H](Oc3ccc(-c4nccs4)cn3)CN2C(=O)[C@@H](NC(=O)OC(C)(C)C(F)(F)F)[C@H](C)C1 [Compound 1064, 1,1,1-trifluoro-2-methylpropan-2-yl ((2R,6S,7R,9R,13aS,14aR,16aS,Z)-7,9-dimethyl-14a-(((1-methylcyclopropyl)sulfonyl)carbamoyl)-5,16-dioxo-2-((5-(thiazol-2-yl)pyridin-2-yl)oxy)-1,2,3,5,6,7,8,9,10,11,13a,14,14a,15,16,16a-hexadecahydrocyclopropa[e]pyrrolo[1,2-a][1,4]diazacyclopentadecin-6-yl)carbamate]	1.01 to 5 nM	0.1 to 0.5 nM	–
